# Where “and” joins values, the source holds several entries; their conditions need not be identical. Equal entries are not always repeated. Where two headings read alike, the source gives them in different places.
# Test system: eggs
# [1] = Day 7 Delta: Day 7 DHP+ versus Day 7 DHP−
# [2] = Delta: Avg. Trtd versus Avg. Untrd, all storage times
# [3] = an additional day (five days) of DHP gas treatment, vs untreated
# [4] = eggs treated four days, vs untreated
# [5] = seven day storage, vs untreated
# [6] = with DHP gas, Mean / Avg. Trtd of 22 replicates, storage 4 to 7 days
# [7] = with DHP gas, egg storage 4 days, single replicates of 90 eggs
# [8] = with DHP gas, egg storage 5 days, single replicates of 90 eggs
# [9] = with DHP gas, egg storage 6 days, single replicates of 90 eggs
# [10] = with DHP gas, egg storage 7 days, single replicates of 90 eggs
# 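Also: paired egg replicates incubated to hatching under standard commercial conditions, then each category scored at hatch as percent of eggs in the replicate.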
# Method: A total of 22 replicates of 90 eggs each of age matched, flock matched eggs are stored prior to incubation for 4 to 7 days in an on-site egg room at about 20° C. […] The paired replicates are then incubated to hatching under standard commercial conditions. At hatching, the following parameters are assessed and recorded: Total Hatchability (%), Fertile Hatchability (%), % Infertile, Early dead (%), Mid dead (%), Late dead (%), Cracked (%), Contaminated (%), Live pip (%), Dead pip (%), Cull dead chick (%), Chick Weight (g), Chick A (%), and Chick B (%).
compound,measurement,setting,value
"OO [DHP, dry hydrogen peroxide]",Total Hatchability,"Day 7 DHP+, summary over replicates stored 7 days",94.44%
same,"% Infertile, delta",[1],0.00%
same,"Chick A, delta",[1],−1.17%
same,"Chick B, delta",[1],1.17%
same,"Chick Weight, delta",[1],1.10 g
same,"Cont, delta",[1],−0.56%
same,"Crack, delta",[1],0.00%
same,"Cull dead cks, delta",[1],0.56%
same,"Dead pip, delta",[1],0.00%
same,"Early dead, delta",[1],−2.78%
same,"Fertile Hatchability, delta",[1],0.56%
same,"Late dead, delta",[1],0.55%
same,"Live pip, delta",[1],1.11%
same,"Mid dead, delta",[1],0.56%
same,"Total Hatchability, delta",[1],0.56%
same,"% Infertile, delta",[2],1.00%
same,"Chick A, delta",[2],0.23%
same,"Chick B, delta",[2],−0.23%
same,"Chick Weight, delta",[2],0.77 g
same,"Cont, delta",[2],−0.05%
same,"Crack, delta",[2],0.05%
same,"Cull dead cks, delta",[2],−0.10%
same,"Dead pip, delta",[2],−0.30%
same,"Early dead, delta",[2],−1.70%
same,"Fertile Hatchability, delta",[2],2.45%
same,"Late dead, delta",[2],−0.97%
same,"Live pip, delta",[2],0.35%
same,"Mid dead, delta",[2],0.45%
same,"Total Hatchability, delta",[2],1.16%
same,increase in fertile hatchability,[3],3.2%
same,increase in total hatchability,[3],1.3%
same,increased weight,[3],0.85 grams
same,DHP gas treated eggs observed to be contaminated,at day 7,none
same,decrease in number of early deaths,"death during incubation, vs untreated",about 1.7%
same,change in fertile hatchability,[4],0.12%
same,change in total hatchability,[4],−0.64%
same,increased weight,[4],0.89 g
same,increase of fertile hatchability,[5],0.56%
same,increase of total hatchability,[5],0.56%
same,increased weight,[5],1.10 grams
same,increase of fertile hatchability,"six days, vs untreated",4.67%
same,increase of total hatchability,"six days, vs untreated",2.96%
same,increased weight,"six days, vs untreated",0.49 grams
same,mid cycle deaths,vs untreated,decreased
same,number of live pip eggs,vs untreated,increases
same,improvement in number of A grade chicks,vs untreated eggs,0.23%
same,increase of average chick weight,"vs untreated eggs, on-site storage 4 to 7 days at about 20° C.",0.77 grams
same,increase of average chick weight,"vs untreated eggs, on-site storage 4 to 7 days, listed as DHP gas",1.7% and 1.8%
same,% Infertile,[6],2.73%
same,Chick A,[6],97.34%
same,Chick B,[6],2.66%
same,Chick Weight,[6],44.46 g
same,Cont,[6],0.00%
same,Crack,[6],0.15%
same,Cull dead cks,[6],0.05%
same,Dead pip,[6],0.05%
same,Early dead,[6],2.78%
same,Fertile Hatchability,[6],93.93%
same,Late dead,[6],1.67%
same,Live pip,[6],0.61%
same,Mid dead,[6],0.61%
same,Total Hatchability,[6],91.36%
same,Cont,[7],0.00%
same,Crack,[7],0.00% (5×) and 1.11% and 2.22%
same,Cull dead,[7],0.00%
same,Dead pip,[7],0.00% (6×) and 1.11%
same,Live pip,[7],1.11% (2×) and 0.00% (4×) and 4.44%
same,Mid dead,[7],0.00% (6×) and 1.11%
same,Cont,[8],0.00%
same,Crack,[8],0.00%
same,Cull dead,[8],0.00%
same,Dead pip,[8],0.00%
same,Early dead,[8],2.22% (2×) and 1.11% (3×) and 3.33%
same,Late dead,[8],0.00% (3×) and 2.22% (3×)
same,Live pip,[8],0.00% (4×) and 1.11% and 2.22%
same,Mid dead,[8],0.00% (2×) and 1.11% (3×) and 2.22%
same,Cont,[9],0.00%
same,Crack,[9],0.00%
same,Cull dead,[9],0.00%
same,Dead pip,[9],0.00%
same,Early dead,[9],2.22% (5×) and 3.33% and 4.44%
same,Live pip,[9],0.00% (6×) and 1.11%
same,Mid dead,[9],1.11% (3×) and 0.00% (3×) and 2.22%
same,% Infer,[10],1.11% and 0.00%
same,Chick A,[10],96.47% and 97.65%
same,Chick B,[10],3.53% and 2.35%
same,Chick Weight,[10],44.94 g and 44.41 g
same,Cont,[10],0.00%
same,Crack,[10],0.00%
same,Cull dead,[10],1.11% and 0.00%
same,Dead pip,[10],0.00%
same,Early dead,[10],1.11%
same,Fertile Hatchblty,[10],95.51% and 94.44%
same,Late dead,[10],2.22% and 1.11%
same,Live pip,[10],0.00% and 2.22%
same,Mid dead,[10],0.00% and 1.11%
same,Total Hatchblty,[10],94.44%
